Measurements published in patent publication US10961215B2, “N-aryl and N-heteroaryl piperidine derivatives as liver X receptor beta agonists, compositions, and their use” (Merck Sharp & Dohme Corp., priority 2016, dated 2021).

Experiments:
[1] = target: T1, GST tagged LXRbeta LBD (ligand binding domain) (Homo sapiens, UniProt P55055); experiment: LanthaScreen TR-FRET Liver X Receptor Coactivator Assay, LXR beta-LBD (co-activator recruitment; IP and % Emax relative to T0901317); assay type: biochemical; details: for EC50: Inflection Point of co-activator recruitment, LXR beta-LBD, TR-FRET; for Emax: read-out: LXR beta actiivty at max dose (%)
T1 construct: purchased Invitrogen pv4658.pps
T1 sequence (P55055 222-460 limits assumed): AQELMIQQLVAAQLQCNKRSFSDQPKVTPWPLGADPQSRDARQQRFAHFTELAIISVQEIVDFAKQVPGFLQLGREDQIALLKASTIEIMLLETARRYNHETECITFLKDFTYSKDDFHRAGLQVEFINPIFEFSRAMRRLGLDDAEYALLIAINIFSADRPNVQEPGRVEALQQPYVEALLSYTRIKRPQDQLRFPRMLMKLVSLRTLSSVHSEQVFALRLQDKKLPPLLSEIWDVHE
Method in brief: (§1)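 Coactivator recruitment is scored against T0901317 as reference dual agonist, giving inflection-point potency and Emax. Compounds met the GST-LBD protein first, then a mix of terbium anti-GST antibody and fluorescein coactivator peptide. TR-FRET was measured after incubation at room temperature.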

[2] = target: T2, GST tagged LXRalpha LBD (ligand binding domain) (Homo sapiens, UniProt Q13133); experiment: LanthaScreen TR-FRET Liver X Receptor Coactivator Assay, LXR alpha-LBD (co-activator recruitment; IP and % Emax relative to T0901317); assay type: biochemical; details: for LXR alpha IP (nM) / EC50: Inflection Point of co-activator recruitment, LXR alpha-LBD, TR-FRET; for Emax: read-out: LXR alpha actiivty at max dose (%)
T2 construct: purchased Invitrogen pv4655
T2 sequence (Q13133 209-447 limits assumed): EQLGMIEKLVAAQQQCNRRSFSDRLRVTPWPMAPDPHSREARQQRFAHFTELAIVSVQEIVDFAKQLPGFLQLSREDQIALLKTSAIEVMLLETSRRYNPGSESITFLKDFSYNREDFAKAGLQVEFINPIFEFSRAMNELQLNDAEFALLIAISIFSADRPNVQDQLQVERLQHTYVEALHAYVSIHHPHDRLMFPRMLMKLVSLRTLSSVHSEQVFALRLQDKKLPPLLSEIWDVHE
Method in brief: as §1

[3] = efficacy at max dose in relation to reference T0901317, LXR beta-LBD
[4] = efficacy at max dose in relation to reference T0901317, LXR alpha-LBD

EC50 [1] [nM]	LXR beta actiivty at max dose (%) [1, 3] [%]	LXR alpha IP (nM) [2]	LXR alpha actiivty at max dose (%) [2, 4] [%]	Emax [1, 3] [%]	Emax [2, 4] [%]	EC50 [2] [nM]	SMILES
275	73	No IP	16	–	–	–	COc1cccc([C@@](O)(C(=O)NCCCC2CCN(c3ccc(C(=O)N(C)C)c(Cl)n3)CC2)C(F)(F)F)c1 [Example 5-23, (R)-2-chloro-N,N-dimethyl-6-(4-(3-(3,3,3-trifluoro-2-hydroxy-2-(3-methoxyphenyl)propanamido)propyl)piperidin-1-yl) nicotinamide]
66	–	No IP	–	57	15	–	CN(C)C(=O)c1ccc(N2CCC(C[C@@H]3C[C@H]3CN(C)C(=O)[C@](O)(c3ccccc3)C(F)(F)F)CC2)nc1Cl [Example 18-4, 2-chloro-N,N-dimethyl-6-(4-(((1R,2R)-2-(((R)-3,3,3-trifluoro-2-hydroxy-N-methyl-2-phenylpropanamido)methyl)cyclopropyl)methyl)piperidin-1-yl)nicotinamide]
151	–	No IP	–	58	12	–	COc1cccc([C@@](O)(C(=O)N(C)CCCC2(F)CCN(c3ccc(C(=O)N(C)C)c(Cl)n3)CC2)C(F)(F)F)c1 [Example 12-3, (R)-2-chloro-6-(4-fluoro-4-(3-(3,3,3-trifluoro-2-hydroxy-2-(3-methoxyphenyl)-N-methylpropanamido)propyl)piperidin-1-yl)-N,N-dimethylnicotinamide]
393	–	–	–	54	39	4220	CN(C)C(=O)c1ccc(N2CCC([C@H]3C[C@H]3CNC(=O)[C@](O)(c3ccccc3)C(F)(F)F)CC2)nc1Cl [Example 15-9]
43	–	No IP	–	38	0	–	CN(C)C(=O)c1ccc(N2CCC(C)(CCCN(C)C(=O)[C@](O)(c3cccc(OC(F)(F)F)c3)C(F)(F)F)CC2)nc1Cl [Example 9-5, (R)-2-chloro-N,N-dimethyl-6-(4-methyl-4-(3-(3,3,3-trifluoro-2-hydroxy-N-methyl-2-(3-(trifluoromethoxy)phenyl)pro-panamido)propyl)piperidin-1-yl)nicotinamide]
78	–	–	–	42	19	921	CN(C)C(=O)c1ccc(N2CCC(C)(CCCN(C)C(=O)[C@](O)(c3ccccc3)C(F)(F)F)CC2)cc1Cl [Example 9-7, (R)-2-chloro-N,N-dimethyl-4-(4-methyl-4-(3-(3,3,3-trifluoro-2-hydroxy-N-methyl-2-phenylpropanamido)propyl)piper-idin-1-yl)benzamide]
235	–	–	–	83	26	5220	CN(C)C(=O)c1ccc(N2CCC(CCCNC(=O)C3(c4ccccc4)CCC3)CC2)nc1Cl [Example 5-16, 2-chloro-N,N-dimethyl-6-(4-(3-(1-phenylcyclobutane-carboxamido)propyl)piperidin-1-yl)nicotinamide]
22	–	–	–	64	42	504	CNC(=O)c1ccc(N2CCC3(CC2)C[C@H]3CCN(C)C(=O)[C@](O)(c2ccccc2)C(F)(F)F)cc1Cl (single isomer, unassigned) [Example 7-7]
18	–	No IP	–	55	6	–	COc1cccc([C@@](O)(C(=O)N(C)CC[C@H]2CC23CCN(c2ccc(C(=O)N(C)C(C)C)c(Cl)c2)CC3)C(F)(F)F)c1 [Example 7-14, 2-chloro-N-isopropyl-N-methyl-4-((R)-1-(2-((R)-3,3,3-trifluoro-2-hydroxy-2-(3-methoxyphenyl)-N-methylpropanamido)ethyl)-6-azaspiro[2.5]octan-6-yl)benzamide]

Second part, the compound before the results:

SMILES	EC50 [1] [nM]	LXR beta actiivty at max dose (%) [1, 3] [%]	LXR alpha IP (nM) [2]	LXR alpha actiivty at max dose (%) [2, 4] [%]	Emax [1, 3] [%]	Emax [2, 4] [%]	EC50 [2] [nM]
CN(C)C(=O)c1ccc(N2CCC(CCCNC(=O)[C@](O)(c3cccc(OC4CC4)c3)C(F)(F)F)CC2)nc1Cl [Example 5-11, (R)-2-chloro-6-(4-(3-(2-(3-cyclopropoxyphenyl)-3,3,3-trifluoro-2-hydroxypropanamido)propyl)piperidin-1-yl)-N,N-dimethylnicotinamide]	349	–	No IP	–	46	-8	–
CC(C)[C@@]1(C(=O)N(C)CCCC2CCN(c3ccc(C(=O)N(C)C)c(Cl)n3)CC2)CCCO1 [Example 1-18, (R)-2-chloro-6-(4-(3-(2-isopropyl-N-methyl-tetrahydrofuran-2-ycarboxamido)propyl)piperidin-1-yl)-N,N-dimethylnicotinamide]	564	–	No IP	–	41	13	–
CN(C)C(=O)c1ccc(N2CCC(CCCN(C)C(=O)[C@@](O)(c3cccc(OC(F)F)c3)C(F)(F)F)CC2)nc1Cl [Example 1-50, (S)-2-chloro-6-(4-(3-(2-(3-(difluoromethoxy)phenyl)-3,3,3-trifluoro-2-hydroxy-N-methyl-propanamido)propyl)piperidin-1-yl)-N,N-dimethylnicotinamide]	62	–	No IP	–	63	18	–
CN(C)C(=O)c1ccc(N2CCC(CCCNC(=O)C(O)(c3ccccc3)C(F)(F)F)CC2)nc1Cl (stereo not drawn) [Example 5-6, 2-chloro-N,N-dimethyl-6-(4-(3-(3,3,3-trifluoro-2-hydroxy-2-phenylpropanamido)propyl)piperidin-1-yl)nicotinamide]	267	–	–	–	105	23	3700
CN(C)C(=O)c1ccc(N2CCC(CCCNC(=O)OCc3ccccc3)CC2)nc1Cl [Example 5-5, benzyl 3-(1-(6-chloro-5-(dimethylcarbamoyl)pyridin-2-yl)piperidin-4-yl)propyl-carbamate]	1510	–	No IP	–	39	0	–
CN(C)C(=O)c1ccc(N2CCC(CCCN(C)C(=O)[C@](O)(c3cccc(OC(F)F)c3)C(F)(F)F)CC2)nc1Cl [Example 1-51, (R)-2-chloro-6-(4-(3-(2-(3-(difluoromethoxy)phenyl)-3,3,3-trifluoro-2-hydroxy-N-methyl-propanamido)propyl)piperidin-1-yl)-N,N-dimethylnicotinamide]	546	–	–	–	55	23	5530
CC(C)C(O)(C(=O)N(C)CCCC1CCN(c2ccc(C(=O)N(C)C)c(Cl)c2)CC1)C(F)(F)F (stereo not drawn) [Example 4-8, 2-chloro-4-(4-(3-(2-hydroxy-N,3-dimethyl-2-(trifluoromethyl)butanamido)propyl)piperidin-1-yl)-N,N-dimethyl-benzamide]	471	–	–	–	73	23	3350
CN(C)C(=O)c1ccc(N2CCC(CCCN(C)C(=O)[C@](N)(c3ccccc3)C(F)(F)F)CC2)nc1Cl [Example 1-29, (R)-6-(4-(3-(2-amino-3,3,3-trifluoro-N-methyl-2-phenylpropanamido)propyl)piperidin-1-yl)-2-chloro-N,N-dimethylnicotinamide]	396	–	No IP	–	51	8	–
CC(C)[C@]1(C(=O)N(C)CCCC2CCN(c3ccc(C(=O)N(C)C)c(Cl)n3)CC2)CCCO1 [Example 1-19, (S)-2-chloro-6-(4-(3-(2-isopropyl-N-methyl-tetrahydrofuran-2-carboxamido)propyl)piperidin-1-yl)-N,N-dimethylnicotinamide]	1040	–	–	–	41	38	17400
CN(C)C(=O)c1ccc(N2CCC(CCCN(C)C(=O)[C@](O)(c3cccc(C4CC4)c3)C(F)(F)F)CC2)cc1Cl [Example 4-3, (R)-2-chloro-4-(4-(3-(2-(3-cyclopropylphenyl)-3,3,3-trifluoro-2-hydroxy-N-methylpropanamido)propyl)piperidin-1-yl)-N,N-dimethylbenzamide]	67	–	No IP	–	53	0	–
CN(C)C(=O)c1ccc(N2CCC(CCCN(C)C(=O)C(C)(C)c3ccccc3)CC2)cc1Cl [Example 4-5, 2-chloro-4-(4-(3-(N,2-dimethyl-2-phenylpropanamido)propyl)piperidin-1-yl)-N,N-dimethylbenzamide]	229	–	No IP	–	50	8	–
CN(C)C(=O)c1ccc(N2CCC(CCCN(C)C(=O)[C@]3(c4cccc(Cl)c4)CCCO3)CC2)nc1Cl [Example 1-62, (R)-2-chloro-6-(4-(3-(2-(3-chlorophenyl)-N-methyltetrahydrofuran-2-carboxamido)propyl)piperidin-1-yl)-N,N-dimethylnicotinamide]	694	–	No IP	–	28	0	–
